Results as given in PubChem BioAssay AID651759 (The Scripps Research Institute Molecular Screening Center, 2012).
“And” between values parts separate entries of the source, which are not always exact repeats. Equal values may be shown once. The source made the active and inactive calls. The rule behind the calls is not given here.

The molecules below were run against Perilipin-5 (Homo sapiens) + 1-acylglycerol-3-phosphate O-acyltransferase ABHD5 (Homo sapiens) (UniProt Q00G26+Q8WTS1) (assay: blockers of ABHD5 binding to perilipin-5 – cell lysate, luminescence, proteins expressed in HEK293T, late-stage follow-up (AID 651759)). Conditions: ABHD5-PLIN5 interaction.
Chain of Perilipin-5 (Homo sapiens) + 1-acylglycerol-3-phosphate O-acyltransferase ABHD5 (Homo sapiens) (Q00G26 whole entry, looked up): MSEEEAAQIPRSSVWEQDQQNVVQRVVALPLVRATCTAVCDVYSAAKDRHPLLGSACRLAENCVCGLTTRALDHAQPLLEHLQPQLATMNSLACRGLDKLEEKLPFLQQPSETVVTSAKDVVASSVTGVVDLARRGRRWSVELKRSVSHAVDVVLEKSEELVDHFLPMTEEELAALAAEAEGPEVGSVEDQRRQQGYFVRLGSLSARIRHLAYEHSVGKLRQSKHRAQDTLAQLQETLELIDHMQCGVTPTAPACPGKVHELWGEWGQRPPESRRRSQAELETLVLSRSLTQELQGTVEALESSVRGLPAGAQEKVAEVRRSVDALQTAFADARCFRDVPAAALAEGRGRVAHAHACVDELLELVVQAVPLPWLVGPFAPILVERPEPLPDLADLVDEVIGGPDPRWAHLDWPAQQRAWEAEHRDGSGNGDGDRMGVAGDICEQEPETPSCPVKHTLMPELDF
Chain of Perilipin-5 (Homo sapiens) + 1-acylglycerol-3-phosphate O-acyltransferase ABHD5 (Homo sapiens) (Q8WTS1 whole entry, looked up): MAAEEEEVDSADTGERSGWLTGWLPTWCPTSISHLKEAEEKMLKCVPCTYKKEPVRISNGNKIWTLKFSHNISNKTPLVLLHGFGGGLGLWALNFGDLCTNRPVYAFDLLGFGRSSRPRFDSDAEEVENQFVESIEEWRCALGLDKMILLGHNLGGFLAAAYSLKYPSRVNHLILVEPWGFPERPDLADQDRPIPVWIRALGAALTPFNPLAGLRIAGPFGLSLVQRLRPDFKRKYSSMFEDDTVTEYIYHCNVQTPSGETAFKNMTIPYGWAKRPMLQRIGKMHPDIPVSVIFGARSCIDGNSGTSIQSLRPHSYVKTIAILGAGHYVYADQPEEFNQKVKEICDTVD

| Structure (SMILES) | IC50 |
| --- | --- |
| CCOC(=O)c1c(NC(C)=O)sc2c1CCC(C=O)=C2Sc1ccccc1 | 2.25 µM |
| O=C(/C(=C/O)N=Nc1ccc(Cl)cc1)c1ccncc1 | 6.19 µM |
| CC(CCc1ccco1)NC(=O)CCc1nnc2ccc(NCc3ccccc3Cl)nn12 (stereo unspecified) | 2.89 µM |
| CN1CCC(=C2c3ccccc3CC(=O)c3sccc32)CC1 | > 39.8 µM (inactive) |
| COc1cc(OC)cc(C(=O)NC(=S)N(Cc2ccccc2)C(C)C)c1 | 2.15 µM |
| Cc1ccc2c(CC(=O)N3CCN(S(=O)(=O)c4ccc5c(c4)OCCO5)CC3)coc2c1 | 2.97 µM and 5.73 µM |
| CCN(CC)CCN(CC(=O)Nc1c(C)cc(C)cc1C)C(=O)c1ccccc1 | 2.85 µM |
| Cc1nc2c(o1)CCc1ccccc1C2N1CCN(C)CC1 (stereo unspecified) | 2.25 µM |
| CC(=O)Cc1cc(O)c2ccccc2c1OC(=O)c1ccccc1 | 3.56 µM |
| CC1=CC(C)(C)Nc2ccc(OC(=O)C(C)N3C(=O)c4ccccc4C3=O)cc21 (stereo unspecified) | 4.25 µM |
| NC(=NCCCCCCN=C(N)/N=C(\N)Nc1ccc(Cl)cc1)/N=C(\N)Nc1ccc(Cl)cc1 | 6.22 µM and 6.86 µM |
| Cc1ccc2nc3cc([N+](=O)[O-])cc([N+](=O)[O-])c3cc2c1 | 1.44 µM |
| Cc1cc(C)c(NC(=O)C[N+](C)(C)CC(O)COc2cccc3ccccc23)c(C)c1 (stereo unspecified) | 9.14 µM |
| CC(=O)Cc1cc(O)c2ccccc2c1OC(=O)c1ccc(Br)cc1 | 4.75 µM |
| Cc1cc(C)c2nc(NNC(=O)c3ccc(S(=O)(=O)N4CCCC(C)C4)cc3)sc2c1 (stereo unspecified) | 3.89 µM |
| Cc1cc(C)c(NC(=O)CN2CCN3CCCC3C2)c(C)c1 (stereo unspecified) | 7.06 µM |
| CCN(CC)CCNC(=O)c1ccc(NC(=O)c2cn(-c3ccccc3)nc2-c2cccs2)cc1 | inactive |
| CCN(CC)CCOc1ccc(/C(=C(/Cl)c2ccccc2)c2ccccc2)cc1 | 1.32 µM |
| CC(=O)Oc1ccc(C23c4ccccc4C2(OC(C)=O)c2cc(OC(C)=O)ccc23)cc1 (stereo unspecified) | > 39.8 µM (inactive) |
| O=C(C[n+]1cccc(CNC(=O)c2ccc(OC(F)F)cc2)c1)Nc1cccc(C(F)(F)F)c1 | > 39.8 µM (inactive) |
| CCCCNC(=O)Nc1ccc2c(c1)N(C)C(=O)c1ccccc1S2 | 3.12 µM |
| CC(C)c1ccc(N2C=Nc3ccc(C(C)C)cc3C2)cc1 | 1 µM |
| CCCCOC(=O)Nc1cc(C(=O)OC)ccc1C(=O)OC | 3.7 µM |
| CCCNC(=O)Nc1ccc2c(c1)N(C)C(=O)c1ccccc1S2 | 5.58 µM |

Further lines, results first:

| IC50 | Structure (SMILES) |
| --- | --- |
| inactive | CN(C)CCCN(C(=O)CCc1ccccc1)c1nc2ccc(Cl)cc2s1 |
| > 39.8 µM (inactive) | COc1cc(C)c2sc3ccccc3c(=O)c2c1NCCN(C)C |
| 9 µM | CC1CCN(S(=O)(=O)c2ccc(NC(=O)Cc3cccs3)cc2)CC1 |
| inactive | O=c1[nH]c(C2CCN(S(=O)(=O)c3ccc(F)cc3)CC2)nc2c1nnn2Cc1ccc2c(c1)OCCO2 |
| 1.38 µM | CCN(CC)CCC(C)OC(c1ccccc1)c1ccccc1 (stereo unspecified) |
| > 39.8 µM (inactive) | CN(C)CCOC1(Cc2ccc(F)cc2)CCC(C(C)(C)C)CC1 (stereo unspecified) |
| 7.89 µM | CC1CCN(S(=O)(=O)c2ccc(NC(=O)Cc3ccccc3)cc2)CC1 |
| 1.33 µM | O=c1[nH]c(C2CCN(S(=O)(=O)c3ccc(S(=O)(=O)NC4CC4)cc3)CC2)nc2c1nnn2Cc1ccc(F)cc1 |
| > 39.8 µM (inactive) | COCCN(CCOC)c1nc(N)c2c(N)nc3c(c2c1C#N)CC(=O)N3Cc1ccc(Cl)cc1 |
| 1.26 µM | CCN(CC)CCOCCOC(=O)C1(c2ccccc2)CCCC1 |
| inactive | COc1ccc(C)c2sc(N(CCN(C)C)C(=O)/C=C/c3cccs3)nc12 |
| inactive | COc1ccc(NC(=S)N(CCCN2CCCC2)Cc2cccn2Cc2ccc(Cl)cc2)cc1Cl |
| 4.5 µM | CCOC(=O)c1c(NC(=O)/C=C/C(=O)O)sc(C)c1-c1ccc(C(C)(C)C)cc1 |
| inactive | CN(C)CCCN(C(=O)CCc1ccccc1)c1nc2ccc(Br)cc2s1 |
| 8.86 µM | CC1Sc2ccc(S(=O)(=O)N3CCC(C(=O)NCc4ccc(Cl)cc4)CC3)cc2NC1=O (stereo unspecified) |
| inactive | CC(=O)Nc1ccc(S(=O)(=O)N2c3ccc(F)cc3CCC2C)cc1 (stereo unspecified) |
| inactive | FC(F)(F)c1cccc(NC(=S)N(CCCN2CCCC2)Cc2cccn2Cc2ccc(Cl)cc2)c1 |
| > 13.3 µM (inactive) | COc1ccccc1-c1cc(C(=O)NC2CCN(C)CC2)c2ccc(Cl)c(C)c2n1 |
| > 39.8 µM (inactive) | CN(C)CCN(Cc1ccco1)c1ccccn1 |
| 4.45 µM | C=C[C@]1(C)C[C@@H](OC(=O)CSCCN(CC)CC)[C@]2(C)C(C)CC[C@]3(CCC(=O)[C@H]32)[C@@H](C)[C@@H]1O (stereo partly specified) |
| 9.34 µM | COc1cc2c(cc1OC)C(C)N(CCc1ccc(Cl)cc1)CC2 (stereo unspecified) |
| 1.29 µM | CCOc1cc(N)c(Cl)cc1C(=O)NCC1CN(Cc2ccc(F)cc2)CCO1 (stereo unspecified) |
